Each structure is given as a SMILES string. Like-named read-outs stand apart in the source and are kept apart here. Where only a bound is given, the exact number is not on record here.

Results on seven compounds are retold here after article PMC3086806, “Mining a Cathepsin Inhibitor Library for New Antiparasitic Drug Leads” (PLoS Neglected Tropical Diseases, 2011).

A short description of data set [1]: Jurkat cell cytotoxicity assay. The format is cell-based. The note with it: human, Jurkat cells (clone E6-1), read-out: Cytotoxicity (% inhibition at 10 µM) Jurkat cells. The method, then:
Jurkat cells (clone E6-1) were grown in complete RPMI-1640 medium containing 10% FBS, 50 U/mL penicillin and 50 µg/mL streptomycin (Invitrogen) at 37°C under a humidified atmosphere and 5% CO2. For cytotoxicity testing, cells were diluted to 1×10^5 per ml in complete RPMI-1640 medium. Test compound stocks were prepared in 100% DMSO and screened at 10 µM against cells (1×10^4 cells per well) in sterile Greiner 96-well flat white opaque culture plates (0.5% final DMSO concentration). The 0% inhibition control wells contained 0.5% DMSO while 100% inhibition control wells contained 40 µM staurosporine. After compound addition, plates were incubated for 40 hr at 37°C. At the end of the incubation period, 50 µL of CellTiter-Glo™ reagent (Promega Inc., Madison, WI, USA) was added to each well and plates were placed on an orbital shaker at room temperature for 2 min to induce lysis. After a further 10 min incubation without shaking to stabilize the signal, the ATP-bioluminescence of each well was determined using an Analyst HT plate reader (Molecular Devices, Sunnyvale, CA, USA). Calculations of percentage inhibition and IC50 were performed similar to those in the T. brucei brucei assay.

Another data set has as its target T1, falcipain-2 (Plasmodium falciparum, UniProt Q8I6U4).
T1 construct: made in house
T1 sequence (Q8I6U4 244-484): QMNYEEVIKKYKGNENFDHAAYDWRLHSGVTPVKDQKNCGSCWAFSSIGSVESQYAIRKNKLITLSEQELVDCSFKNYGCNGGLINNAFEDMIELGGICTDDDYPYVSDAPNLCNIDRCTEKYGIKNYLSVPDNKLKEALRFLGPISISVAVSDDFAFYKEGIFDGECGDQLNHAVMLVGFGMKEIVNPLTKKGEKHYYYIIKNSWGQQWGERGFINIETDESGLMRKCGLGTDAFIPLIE
Put plainly: Falcipain-2 protease inhibition assay (Z-Leu-Arg-AMC). The format is biochemical. How it is done:
(§1) Recombinant cruzain, rhodesain, TbCatB, falcipain-2 and falcipain-3 were expressed as described previously, [39], [40], [41], [42]. Inhibitor stock solutions were prepared in DMSO and screened at 0.1 µM for cruzain and rhodesain, 1 µM for TbCatB and 50 nM for falcipain-3 (0.5% DMSO in assay). […] Protease inhibition assays for cruzain and rhodesain were carried out in 96 well plate format as described previously. Cruzain (4 nM), rhodesain (4 nM) or TbCatB (258 nM) was incubated with test compound in 100 mM sodium acetate, pH 5.5, containing 5 mM DTT and 0.01% Triton X-100 (buffer A), for 5 min at room temperature (the higher concentration of TbCatB was required due to its lower intrinsic activity against the fluorogenic substrate). Then buffer A containing Z-Phe-Arg-AMC (Bachem) was added to enzyme-compound mixture to give 10 µM substrate in a final assay volume of 200 µL. The rate of free AMC release was measured at excitation and emission wavelengths of 355 and 460 nm, respectively, with a microtiter plate spectrofluorimeter (SpectraMax M5, Molecular Devices) for 3 min. Percentage inhibition of test compound was calculated relative to the DMSO control (0% inhibition control). IC50 values were determined with Prism 4 software (GraphPad, San Diego, CA) using sigmoidal dose-response variable slope model.
(§2) Protease inhibition assays for falcipain-2 and falcipain-3 were carried out in 96 well plate format as described previously, [43] with modification for end-point readout. Falcipain-2 (21 nM) or falcipain-3 (78 nM) was incubated with test compound for 10 min at room temperature in 200 mM sodium acetate, pH 6, 10 mM DTT and 3.6% glycerol and 0.01% Triton X-100 (buffer B). Then buffer B containing Z-Leu-Arg-AMC (Bachem) was added to the enzyme-compound mixture to give 25 µM substrate in a final assay volume of 200 µL. After 15 min, 50 µL of 5 M acetic acid was added to each well to stop the reaction. End-point fluorescence was read in a spectrofluorimeter as above. The 0% inhibition control wells contained DMSO while 100% inhibition control wells contained 50 µM E-64 (Sigma). Percentage inhibition of test compound was calculated relative to the controls and IC50 curve fitting was performed with Prism 4 software as above.

A further data set addresses T2, falcipain-3 (Plasmodium falciparum, UniProt Q8IIL0).
T2 construct: made in house
T2 sequence (Q8IIL0 243-492): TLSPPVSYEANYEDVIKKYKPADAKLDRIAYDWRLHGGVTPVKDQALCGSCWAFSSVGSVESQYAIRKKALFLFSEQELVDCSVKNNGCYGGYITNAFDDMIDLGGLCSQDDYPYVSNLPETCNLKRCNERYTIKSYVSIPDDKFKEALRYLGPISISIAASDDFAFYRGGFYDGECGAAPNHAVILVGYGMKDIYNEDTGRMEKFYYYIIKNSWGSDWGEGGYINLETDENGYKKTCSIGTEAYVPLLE
Put plainly: Falcipain-3 protease inhibition assay (Z-Leu-Arg-AMC). The format is biochemical. How it is done:
as §1, §2

The test system of data set [2] is W2-strain P. falciparum parasites. Put plainly: P. falciparum growth inhibition assay. The format is cell-based, Plasmodium falciparum. As to conditions: for GI50: Plasmodium falciparum, read-out: GI50 P. falc. W2. The method, then: The growth inhibition assay for P. falciparum was conducted as described previously. W2-strain P. falciparum parasites (1% parasitemia, 2% hematocrit) were cultured at 37°C in human red blood cells under the atmosphere of 3% O2, 5% CO2 balance N2 in 0.2 mL of per well in medium RPMI-1640 supplemented with 10% human serum in duplicate 96-well flat bottom culture plates in the presence of inhibitors. Tested compounds were serially diluted 1∶3 in the range 10,000 – 4.6 nM, with maximum DMSO concentration of 0.1%. Following 48 hours of incubation, the medium was removed and the cells were fixed in 2% formaldehyde in PBS. Parasite growth was evaluated by flow cytometry on a FACsort (Becton Dickinson) equipped with AMS-1 loader (Cytek Development) after staining with 1 nM DNA dye YOYO-1(Molecular Probes) in 100 mM NH4Cl, 0.8% NaCl. Parasitemias were determined from dot plots (forward scatter vs. fluorescence) using […] software (Becton Dickinson). IC50 values for growth inhibition were determined from plots of percentage control parasitemia over inhibitor concentration using GraphPad Prism software.

In the next data set the target is human cathepsin B. Further details: method as in data provided by Celera Genomics. The note with it: historical data; ref data provided by Celera Genomics; read-out: Ki catB; cited from earlier work.
For the next data set, the target named is human cathepsin L. Set-up: method as in data provided by Celera Genomics. As to conditions: historical data; ref data provided by Celera Genomics; read-out: Ki catL; cited from earlier work.
A further data set deals with T3, cruzain (Trypanosoma cruzi, UniProt P25779).
T3 construct: made in house
Description: Cruzain protease inhibition assay (Z-Phe-Arg-AMC). The format is biochemical. How it is done:
as §1

Data set [3] relates to T. brucei brucei clone 427-221a bloodstream forms. Put plainly: T. brucei brucei growth inhibition assay. The format is cell-based. As to conditions: Trypanosoma brucei; 40 hours. The method, then:
The growth inhibition assay for T. brucei brucei was conducted as described previously. Bloodstream forms of the monomorphic T. brucei brucei clone 427-221a were grown in complete HMI-9 medium containing 10% FBS, 10% Serum Plus medium (Sigma Inc. St. Louis Mo. USA), 50 U/mL penicillin and 50 µg/mL streptomycin (Invitrogen) at 37°C under a humidified atmosphere and 5% CO2. […] 5 µL of each dilution was added to 95 µL of diluted parasites (1×10^4 cells per well) in sterile Greiner 96-well flat white opaque culture plates such that the final DMSO concentration was 0.5%. The 0% inhibition control wells contained 0.5% DMSO while 100% inhibition control wells contained 50 µM thimerosal (Sigma). After compound addition, plates were incubated for 40 hours at 37°C. At the end of the incubation period, 50 µL of CellTiter-Glo™ reagent (Promega Inc., Madison, WI, USA) was added to each well and plates were placed on an orbital shaker at room temperature for 2 min to induce lysis. After an additional 10 min incubation without shaking to stabilize the signal, the ATP-bioluminescence of each well was determined using an Analyst HT plate reader (Molecular Devices, Sunnyvale, CA, USA). Raw values were converted to log10 and percentage inhibition calculated relative to the controls. IC50 curve fittings were performed with Prism 4 software as above.

Data set [4] relates to intracellular T. cruzi (CA-I/72) in BESM cells. Description: T. cruzi amastigote growth inhibition assay. The note with it: Trypanosoma cruzi; infected BESM cells, 72 hours. The format is cell-based. The method, then:
The growth inhibition assay for the intracellular T. cruzi was conducted in 96-well plate format as described previously. Briefly, bovine embryo skeletal muscle (BESM) cells (2×10^3/well), seeded overnight, were infected with CA-I/72 T. cruzi trypomastigotes (2×10^3/well). Sixteen hours post-infection, test compounds (serial dilution concentrations starting from 20 µM) were added and assay plates were incubated for an additional 72 hours at 37°C with 5% CO2. Cells were then washed once in PBS, fixed with 4% paraformaldehyde and stained with DNA fluorescent dye DAPI (4′ 6-diamidino-2-phenylindole). The assay plates were then imaged in the IN Cell Analyzer 2000 (GE Healthcare) with the excitation and emission filters set of 350 nm and 460 nm, respectively, to detect DAPI signals. The feature extraction module in IN Cell Developer Toolbox 1.7 software was used to count host nuclei and parasite kinetoplasts by size difference.

Another data set concerns the target T4, TbCatB (Trypanosoma brucei, UniProt Q6R7Z5).
T4 construct: made in house
T4 sequence (Q6R7Z5 23-340): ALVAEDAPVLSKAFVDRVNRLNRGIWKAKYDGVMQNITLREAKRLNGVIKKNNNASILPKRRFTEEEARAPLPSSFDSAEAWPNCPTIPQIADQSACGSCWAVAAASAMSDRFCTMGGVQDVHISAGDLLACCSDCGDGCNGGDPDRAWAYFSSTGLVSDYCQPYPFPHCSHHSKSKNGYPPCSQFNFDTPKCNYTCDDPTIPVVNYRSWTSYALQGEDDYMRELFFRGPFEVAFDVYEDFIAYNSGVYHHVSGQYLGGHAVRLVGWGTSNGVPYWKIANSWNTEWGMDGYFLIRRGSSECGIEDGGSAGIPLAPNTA
Put plainly: TbCatB protease inhibition assay (Z-Phe-Arg-AMC). The format is biochemical. The method, then: as §1

Another data set deals with T5, rhodesain (Trypanosoma brucei rhodesiense, UniProt Q95PM0).
T5 construct: made in house
Put plainly: Rhodesain protease inhibition assay (Z-Phe-Arg-AMC). The format is biochemical. How it is done:
as §1

T3 sequence (P25779 123-467): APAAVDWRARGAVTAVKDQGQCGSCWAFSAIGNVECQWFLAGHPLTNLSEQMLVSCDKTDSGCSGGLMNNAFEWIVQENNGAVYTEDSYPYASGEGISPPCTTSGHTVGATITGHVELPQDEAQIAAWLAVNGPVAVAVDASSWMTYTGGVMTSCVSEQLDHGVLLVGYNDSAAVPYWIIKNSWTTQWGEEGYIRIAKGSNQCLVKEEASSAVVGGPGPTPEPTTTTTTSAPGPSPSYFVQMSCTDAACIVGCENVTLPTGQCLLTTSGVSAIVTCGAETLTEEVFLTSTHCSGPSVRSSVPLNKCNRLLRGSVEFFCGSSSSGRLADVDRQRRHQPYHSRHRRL
T5 sequence (Q95PM0 entry or part of it): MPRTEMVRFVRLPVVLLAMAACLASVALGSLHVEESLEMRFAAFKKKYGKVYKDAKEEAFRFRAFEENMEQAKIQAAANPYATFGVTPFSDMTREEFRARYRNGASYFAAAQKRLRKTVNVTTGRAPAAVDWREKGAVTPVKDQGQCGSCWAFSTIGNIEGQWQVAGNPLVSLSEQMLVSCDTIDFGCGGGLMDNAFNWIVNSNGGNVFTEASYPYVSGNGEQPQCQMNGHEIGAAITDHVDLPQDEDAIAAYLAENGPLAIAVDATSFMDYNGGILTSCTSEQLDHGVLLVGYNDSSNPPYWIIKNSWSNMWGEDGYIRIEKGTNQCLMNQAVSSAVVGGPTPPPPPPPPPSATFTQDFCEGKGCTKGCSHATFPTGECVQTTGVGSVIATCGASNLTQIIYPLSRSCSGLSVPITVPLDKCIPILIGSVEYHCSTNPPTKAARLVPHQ

As a reminder, the IC50 is the concentration that gives 50% inhibition. By GI50 is commonly meant the concentration that inhibits growth by half. For `N#CC1(NC(=O)C(CC2CCCCC2)NC(=O)c2cccc(-c3cccc(S(N)(=O)=O)c3)c2)CCS(=O)(=O)CC1` (stereo not drawn) [Compound 20], the cytotoxicity at 40 h, 10 µM in [1] was under 5%. The same compound displayed an IC50 against falcipain-2 of 7.5 nM. The IC50 on falcipain-3 (read-out: IC50 falcipain-3) was found to be 11 nM. In addition, in [2] (cultured W2 strain, 48 hours), the GI50 turned out to be 170 nM and the “GI50 P. falc. W2” value is listed as “sub-micromolar”.

The term Ki denotes a dissociation constant, usually derived from enzyme kinetics or from competition with a known ligand. With `CC(C)CC(NC(=O)N1CCOCC1)C(=O)NC(C=CS(=O)(=O)c1ccccc1)CCc1ccccc1` (stereo not drawn) [Compound 18b], the cytotoxicity at 40 h, 10 µM in data set [1] was under 5%. In addition, the figures for the IC50 against falcipain-2 and against falcipain-3 were 3.6 nM and 29 nM, respectively. In addition, the Ki on human cathepsin B was 210 nM. The GI50 in [2] (W2, 48 h) worked out at 40 nM.

As to `CC(C)CC(NC(=O)N1CCOCC1)C(=O)NC(C=CS(=O)(=O)c1ccccc1)CCc1ccc(O)cc1` (stereo not drawn) [Compound 18a], the cytotoxicity at 40 h, 10 µM in data set [1] is under 5%. Besides, the IC50 on falcipain-2 was found to be 7.6 nM; on falcipain-3 (read-out: IC50 falcipain-3), 40 nM. Besides, the results for the Ki on human cathepsin L and on human cathepsin B were 3 nM and 440 nM, respectively. The GI50 in data set [2] (cultured W2 strain, 48 hours) came to 20 nM.

`CCCCC(NC(=O)C(CC(C)C)NC(C)=O)C(=O)c1nc2ccccc2o1` (stereo not drawn) [Compound 19c]: in [1], the cytotoxicity at 40 h, 10 µM is under 5%. In addition, the IC50 on falcipain-2 came out at 66 nM; at falcipain-3 (read-out: IC50 falcipain-3), 17 nM. Further, the values for the Ki on human cathepsin L and at human cathepsin B were 610 nM and 920 nM, respectively. In [2] (cultured W2 strain, 48 hours), the GI50 was found to be 4800 nM.

Take `CCCC[C@H](NC(=O)C1(NC(=O)c2ccc(-c3csc(N4CCN(C)CC4)n3)cc2)CCCCC1)C(=O)c1nc2ccccc2o1` [Compound 23b]: the cytotoxicity at 40 h, 10 µM in [1] is under 5%. For the same compound, the IC50 at cruzain worked out at 380 nM; at TbCatB, 1 nM; against rhodesain, 5000 nM. The GI50 in [3] came out at 10500 nM; in [4], 7700 nM. Moreover, the Ki at human cathepsin L was 280 nM; at human cathepsin B, 610 nM.

Turning to `CC(C)CC(NC(c1ccc(-c2ccc(S(C)(=O)=O)cc2)cc1)c1nccs1)C(=O)NC1(C#N)CC1` (stereo not drawn) [Compound 21], the cytotoxicity at 40 h, 10 µM in data set [1] was under 5%. Moreover, the figures for the IC50 at falcipain-2 and on falcipain-3 (read-out: IC50 falcipain-3) were 2 nM and 2.4 nM, respectively. Besides, the values for the Ki on human cathepsin L and on human cathepsin B were 32 nM and 6700 nM, respectively. For the same compound, the GI50 in [2] (cultured W2 strain, 48 hours) came out at 870 nM. Further, in [2] (cultured W2 strain, 48 hours), the “GI50 P. falc. W2” value is “sub-micromolar”.

Turning to `CCC[C@H](NC(=O)C1(NC(=O)c2ccc(-c3csc(N4CCN(C)CC4)n3)cc2)CCCCC1)C(=O)c1nc2ccccc2o1` [Compound 23a], the cytotoxicity at 40 h, 10 µM in [1] was under 5%. The IC50 against cruzain amounted to 30 nM; against TbCatB it was 70 nM; against rhodesain, 3900 nM. Besides, the GI50 in data set [3] came out at 4200 nM; in data set [4] it was 19000 nM. The results for the Ki on human cathepsin L and at human cathepsin B were 1100 nM and 320 nM, respectively.
